Publication PMC11335189, “Revealing molecular determinants governing mambalgin-3 pharmacology at acid-sensing ion channel 1 variants” (Cellular and Molecular Life Sciences: CMLS, 2024)
Positions of bridges follow the written chain, without caps; N, C: chain ends. No end group written: not given here.

Key:
[1] = target: T1, rASIC1b (Rattus norvegicus, UniProt P55926); experiment: TEVC in Xenopus laevis oocytes expressing rASIC1b; assay type: cell-based; settings: for remaining activity at 0.3 µM: 300 nM peptide, conditioning pH 7.45, stimulating pH 6, read-out: I/Icontrol; for loss in potency relative to wild-type Ma-3 (estimated): peptides applied at pH 7.45, stimulated at pH 6
T1 construct: expressed in transfected cells; host or cells: Xenopus laevis oocytes (cRNA injection)
T1 sequence (P55926 1-559 isoform P55926-3): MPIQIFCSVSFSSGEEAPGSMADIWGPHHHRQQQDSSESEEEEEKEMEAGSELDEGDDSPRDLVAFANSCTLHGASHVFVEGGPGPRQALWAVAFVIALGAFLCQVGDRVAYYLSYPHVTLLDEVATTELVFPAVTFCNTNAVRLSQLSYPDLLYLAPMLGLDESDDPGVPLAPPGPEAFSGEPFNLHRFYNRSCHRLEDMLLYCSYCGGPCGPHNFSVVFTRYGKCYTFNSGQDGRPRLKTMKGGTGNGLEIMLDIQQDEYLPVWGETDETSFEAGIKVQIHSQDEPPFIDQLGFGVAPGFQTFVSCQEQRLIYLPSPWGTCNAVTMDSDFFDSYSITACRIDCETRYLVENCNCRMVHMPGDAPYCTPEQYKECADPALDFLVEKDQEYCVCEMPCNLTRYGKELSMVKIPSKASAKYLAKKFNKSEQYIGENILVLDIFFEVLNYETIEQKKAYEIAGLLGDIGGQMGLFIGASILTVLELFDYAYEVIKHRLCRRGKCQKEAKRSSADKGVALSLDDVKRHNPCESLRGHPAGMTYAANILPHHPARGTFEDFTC
Protocol: (§1) Two-electrode voltage-clamp (TEVC) experiments using Xenopus laevis oocytes were conducted as previously described. Briefly, oocytes were surgically removed from anaesthetised female frogs, then treated with collagenase (~ 1 mg/ml, Sigma type I) for 2 h under agitation at room temperature. cRNAs were synthesised using a mMessage mMachine T7 or SP6 transcription kit (Thermo Fisher Scientific Australia Pty Ltd, Scoresby, VIC, Australia) and injected into healthy stage V–VI oocytes at 0.2–20 ng per cell. Different amounts of RNA were used for different wild-type and mutant constructs, as well as to titrate expression levels to record over multiple days and maintaining consistent expression levels. Injected oocytes were incubated at 17 °C for 1–7 days in 50% Leibovitz’s L-15 medium (Gibco, Thermo Fisher Scientific Australia Pty Ltd, Scoresby, VIC, Australia), supplemented with 25 µg/mL gentamicin, 25 µg/mL streptomycin, and 2.5% fetal horse serum. Membrane currents were recorded 2–7 days after cRNA-injection under voltage-clamp at -60 mV (Axon Axoclamp 900 A, Molecular Devices, CA, USA) using two standard glass microelectrodes of 0.5–1 MΩ resistance when filled with 3 M KCl solution. Data were sampled at 2 kHz and filtered at 0.1 kHz using Clampex 10 software (Molecular Devices, CA, USA). A microperfusion system was used to allow fast extracellular solution exchange (bath volume = ~ 30 µL). All experiments were performed at room temperature (18–23 °C) in ND96 (96 mM NaCl, 2 mM KCl, 1.8 mM CaCl2, 2 mM MgCl2, 5 mM HEPES, pH 7.45). In solutions below pH 6.8, HEPES was replaced by MES. All solutions containing peptides contained 0.05% fatty acid free bovine serum albumin to decrease adsorptive losses of peptide to plasticware. For all channels tested, control current magnitudes between 500 and 9000 nA when tested using a conditioning pH of 7.45 and stimulating pH of 6 (except for the chimeras that were stimulated with pH 5) were used for data collection. Before recording any experiments, oocytes were stimulated multiple times with low pH to minimise and stabilise tachyphylaxis/desensitisation, which were then accounted for during analysis. Complete recovery of currents from Ma-3 induced modulation within 3 min of washout at all channels tested allowed for correction for tachyphylaxis/desensitisation during analyses.
(§2) Specific to this work, the standard protocol was for oocytes to be conditioned at pH 7.45 and channels stimulated every 60 s using a 5 s pH 5 or 6 application, unless stated otherwise. For all concentration-response data, peptides were applied for ~ 50 s between each low pH stimulus application. Activation curves were determined by conditioning oocytes at pH 8 (Fig. 2e − g; and Fig. 5a and b) or 7.45 (Fig. 6; and Supplementary Fig. 2d and c) for 55 s and applying low pH stimuli from 7.25 to 5.0 for 5 s. Steady-state desensitisation (SSD) was determined by applying conditioning solutions of pH values from 8 to 6 for 115 s prior to stimulation by a pH drop to 5 for 5 s. Ma-3 was only applied in the conditioning solution for activation and steady-state desensitisation curves in the presence of peptide. Control pH-dependence curves were determined in the absence of any Ma-3. When assessing the effect of Ma-3 on the rASIC1a: ASIC1b chimeras (C92 and C166; and for the comparative wild-type data), the conditioning pH was 7.45 and stimulating pH 5 (Fig. 3b). Specific details of the conditioning and stimulating pH are noted in each figure legend.
(§3) Data were analysed using pCLAMP-Clampfit software (Version 11, Molecular Devices, CA, USA) and GraphPad Prism 9.5 and 10.2.2 (GraphPad Software, San Diego, CA, USA). To obtain the Hill coefficient (nH) and half-maximal response (EC50, IC50, or pH50) the Hill equation was fitted to normalised concentration-response curves by using a non-linear fit to the data of a four-parameter logistic equation (“sigmoidal dose-response” in GraphPad Prism 9.5). […]

[2] = target: T2, rASIC1a S83T/Q84E/R175C/E177G (SQRE) (Rattus norvegicus, UniProt P55926, E177G/Q84E/R175C/S83T); experiment: TEVC oocytes, rASIC1a quadruple mutant SQRE; assay type: cell-based; settings: for remaining activity at 0.3 µM: 300 nM peptide, conditioning pH 7.45, stimulating pH 6, read-out: I/Icontrol
T2 construct: expressed in transfected cells; host or cells: Xenopus laevis oocytes (cRNA injection)
T2 sequence (P55926 1-526 S83T/Q84E/R175C/E177G): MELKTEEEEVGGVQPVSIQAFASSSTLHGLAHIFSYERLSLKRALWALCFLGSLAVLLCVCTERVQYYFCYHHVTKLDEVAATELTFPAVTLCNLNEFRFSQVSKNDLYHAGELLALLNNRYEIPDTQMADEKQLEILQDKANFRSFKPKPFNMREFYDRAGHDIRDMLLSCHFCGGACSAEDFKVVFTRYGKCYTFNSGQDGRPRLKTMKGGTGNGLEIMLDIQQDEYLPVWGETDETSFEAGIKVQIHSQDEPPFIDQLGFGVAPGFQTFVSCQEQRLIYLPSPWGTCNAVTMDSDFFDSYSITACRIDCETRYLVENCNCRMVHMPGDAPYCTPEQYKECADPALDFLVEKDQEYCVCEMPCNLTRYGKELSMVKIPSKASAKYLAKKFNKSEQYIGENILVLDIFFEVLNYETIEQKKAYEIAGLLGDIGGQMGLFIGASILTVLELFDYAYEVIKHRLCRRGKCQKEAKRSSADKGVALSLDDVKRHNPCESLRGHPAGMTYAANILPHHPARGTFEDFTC
Protocol: as §1, §2, §3

[3] = 100 nM Ma-3, conditioning pH 8, mean ± SEM
[4] = 100 nM Ma-3, stimulating pH 5, mean ± SEM
[5] = 100 nM Ma-3 in conditioning solution, conditioning pH 8, Hill fit, mean ± SEM, n = 5–8
[6] = 100 nM Ma-3 in conditioning solution, stimulating pH 5, Hill fit, mean ± SEM, n = 5–8

Substance | remaining activity at 0.3 µM ([1]; n = 5–8) [%] | loss in potency relative to wild-type Ma-3 (estimated) [1] [fold] | remaining activity at 0.3 µM ([2]; n = 5–8) [%] | shift in the activation curve ([1]; 100 nM Ma-3, conditioning pH 8) | slope of activation curve in presence of Ma-3 [1, 3] | shift of the SSD curve towards alkaline values ([1]; 100 nM Ma-3, stimulating pH 5) [pH units] | slope of SSD curve in presence of Ma-3 [1, 4] | pH50 of activation in presence of Ma-3 [1, 5] | pH50 of steady-state desensitisation (SSD) in presence of Ma-3 [1, 6] | t1/2 of onset of inhibition ([1]; 300 nM Ma-3 (~ 10 times the IC50) applied at pH 7.45 for different durations, single exponential fit, n = 5) [s] | pH50 of activation in presence of Ma-3 ([1]; 300 nM Ma-3, conditioning pH 7.45, Hill fit, n = 5–6) | time of Ma-3 application to maximal inhibition ([1]; 300 nM Ma-3 at pH 7.45) [s] | t1/2 of recovery of currents from inhibition (washout) ([1]; after 300 nM Ma-3, pH 7.45 conditioning, single exponential fit, n = 5) [s] | shift of the activation curve towards acidic values ([2]; 100 nM Ma-3, conditioning pH 8) [pH units] | slope of activation curve in presence of Ma-3 [2, 3] | change of pH50 of the SSD curve ([2]; 100 nM Ma-3, stimulating pH 5) | slope of SSD curve in presence of Ma-3 [2, 4] | pH50 of activation in presence of Ma-3 [2, 5] | pH50 of steady-state desensitisation (SSD) in presence of Ma-3 [2, 6]
H-SLKCYQHGAVVTCHRDMKFCYHNIGMPFRNLKLILQGCSSSCSETENNKCCSTDRCNK (disulfide 4-20, 13-38, 42-50, 51-56 (inferred)) [K8A] | 91 | > 30 | 65 | – | – | – | – | – | – | – | – | – | – | – | – | – | – | – | –
H-SLKCYQHGKVVTCHRDAKFCYHNIGMPFRNLKLILQGCSSSCSETENNKCCSTDRCNK (disulfide 4-20, 13-38, 42-50, 51-56 (inferred)) [M16A] | 80 | > 30 | 56 | – | – | – | – | – | – | – | – | – | – | – | – | – | – | – | –
H-SLKCYQHGKVVTCHRDMKFCYHNIGMPFRNLKLILQGCSSSCSETENNKCCSTDRCNK (disulfide 4-20, 13-38, 42-50, 51-56 (inferred)) [Ma-3, mambalgin-3] | 40 | – | 48 | no shift | 3.69 ± 0.56 | 0.06 | 2.41 ± 0.51 | 6.03 ± 0.02 | 7.04 ± 0.04 | 3.8 | 6.17 | ≤ 45 | 12.8 | 0.11 | 2.68 ± 0.34 | remained unchanged | 5.47 ± 0.95 | 6.03 ± 0.02 | 7.12 ± 0.01
